Source: patent publication US20060116407A1, “Amide derivatives” (priority 2004, published 2006)
pIC50: −log10 of the molar value.

How the values were obtained:
HER-2 = biological target: T1, HER-2 (Homo sapiens, UniProt P04626); assay: Inhibition of HER-2 phosphorylation in Calu-3 tumor cell line; format: cell-based; settings: Calu-3 cells, compound 1 μM, 16 h, pY 1248 in HER-2, percentage of DMSO control; read-out: Percent inhibition of HER2-phosphorylation (compound concentration 1 μM)
T1 construct: endogenous in cells; host or cells: Calu-3 (ATCC HTB-55)
T1 sequence (P04626 23-1255): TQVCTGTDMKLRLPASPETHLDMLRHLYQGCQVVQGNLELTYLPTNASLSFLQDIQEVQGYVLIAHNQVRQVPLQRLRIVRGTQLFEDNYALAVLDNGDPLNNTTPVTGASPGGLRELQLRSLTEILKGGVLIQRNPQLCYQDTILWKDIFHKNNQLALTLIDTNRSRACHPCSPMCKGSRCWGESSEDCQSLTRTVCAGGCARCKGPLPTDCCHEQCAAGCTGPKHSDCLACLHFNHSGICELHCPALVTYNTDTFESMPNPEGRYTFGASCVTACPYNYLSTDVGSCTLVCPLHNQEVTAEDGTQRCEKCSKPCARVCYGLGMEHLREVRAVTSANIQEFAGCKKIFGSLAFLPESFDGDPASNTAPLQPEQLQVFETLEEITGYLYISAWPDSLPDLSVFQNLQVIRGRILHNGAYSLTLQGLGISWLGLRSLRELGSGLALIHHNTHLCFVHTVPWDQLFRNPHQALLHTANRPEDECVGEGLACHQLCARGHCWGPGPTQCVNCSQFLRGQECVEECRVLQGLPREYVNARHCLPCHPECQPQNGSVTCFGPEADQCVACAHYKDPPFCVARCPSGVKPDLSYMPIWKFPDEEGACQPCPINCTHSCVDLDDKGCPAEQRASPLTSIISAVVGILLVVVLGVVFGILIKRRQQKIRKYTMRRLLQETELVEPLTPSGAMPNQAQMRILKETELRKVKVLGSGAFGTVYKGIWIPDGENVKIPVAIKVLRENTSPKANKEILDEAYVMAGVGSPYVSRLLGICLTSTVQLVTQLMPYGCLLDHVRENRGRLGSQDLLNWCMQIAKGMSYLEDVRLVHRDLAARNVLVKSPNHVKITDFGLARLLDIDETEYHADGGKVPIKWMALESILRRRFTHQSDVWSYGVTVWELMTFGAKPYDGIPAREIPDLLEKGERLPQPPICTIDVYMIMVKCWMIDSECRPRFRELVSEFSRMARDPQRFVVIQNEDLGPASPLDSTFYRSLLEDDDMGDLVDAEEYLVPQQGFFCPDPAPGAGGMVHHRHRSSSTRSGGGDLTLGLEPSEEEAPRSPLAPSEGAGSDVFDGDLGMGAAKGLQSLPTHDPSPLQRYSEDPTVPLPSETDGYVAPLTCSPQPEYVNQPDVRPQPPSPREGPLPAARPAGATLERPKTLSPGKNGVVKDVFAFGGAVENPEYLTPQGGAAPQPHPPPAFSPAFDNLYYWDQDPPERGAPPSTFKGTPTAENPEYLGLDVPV
Method: Inhibition of HER-2 Phosphorylation in Calu-3 Tumor Cell Line
2×10^5 Calu-3 (ATTC HTB-55) cells per well were plated in a 12-well plate. After 4 days cells were starved for 16 h in Dulbecco's Modified Eagle Medium (DMEM)/0.5% Fetal Calf Serum (FCS)/1% Glutamine. During this 16 h period cells were incubated with a solution of the test compound in dimethylsulfoxide(DMSO), so that the final concentration of the compound is 1 μM and the final volume of DMSO is 0.5%. Afterwards cells were lysed in lyses buffer containing 1% Triton®X-100, 10% Glycerol, 1 mM Ethylene glycol-bis(2-aminoethylether)-N,N,N′,N′-tetraacetic acid (EGTA), 1.5 mM MgCl2, 150 mM NaCl, 50 mM 4-(2-hydroxyethyl)-1-piperazineethanesulfonic acid (HEPES) buffer pH 7.5, 1 mM Phenylmethylsulfonyl fluoride (PMSF), 10 ∥g/mL Aprotinin and […] Orthovanadate. Cell lysates were analyzed on a Sodium Dodecyl Sulfate Polyacrylamide Gel Electrophoresis (SDS PAGE) and after transfer to a nitrocellulose membrane detected with an antibody specifically recognizing the pY 1248 in HER-2. Inhibition of HER-2 phosphorylation is calculated as percentage of the control, which is treated with DMSO only.

HEK293 cells = assay: Viability assay of HEK293 cells (CellTiter-Glo); format: cell-based; settings: Homo sapiens, 168 h, 7 days, 3 μM to 0.00015 μM, luminescence
Method: Viability Assay of HEK293 Cells
A viability assay was performed using the CellTiter-Glo™ Luminescent Cell Viability Assay (see Promega Corporation's Technical Publication No. 288, pp. 1-11 [revised 2.04] which is hereby incorporated by reference in its entirety). This assay is a homogeneous method of determining the number of viable cells in culture based on quantitation of the ATP present, which signals the presence of metabolically active cells. The assay is designed for use with multiwell formats, making it ideal for automated high-throughput screening (HTS), cell proliferation and cytotoxicity assays. The homogeneous assay procedure involves adding a single reagent (containing luciferase, luciferan substrate, and buffer) directly to cells cultured in serum-supplemented medium. Cell washing, removal of medium and multiple pipetting steps are not required. The system detects as few as 15 cells/well in a 384-well format in 10 minutes after adding reagent and mixing.
The homogeneous “add-mix-measure” format results in cell lysis and generation of a luminescent signal proportional to the amount of ATP present. The amount of ATP is directly proportional to the number of cells present in culture. The above-referenced assay generates a “glow-type” luminescent signal, produced by the luciferase reaction, which has a half-life generally greater than five hours, depending on cell type and medium used. The extended half-life eliminates the need to use reagent injectors and provides flexibility for continuous or batch mode processing of multiple plates. The unique homogeneous format avoids errors that may be introduced by other ATP measurement methods that require multiple steps.
HEK293 cells (human embryonic kidney cell line transformed by Adenovirus 5 fragments, ATCC-No. CRL 1573) were cultivated in Dulbecco's Modified Eagle Medium (DMEM) (1×) liquid (high glucose) (which includes L-Alanyl-L-Glutamine [a stabilized a form of L-Glutamine], 4500 mg/L glucose, and 110 mg/L sodium pyruvate) from Invitrogen Corporation (Invitrogen Catalog Number 31966-021 [now 10569-010] which is hereby incorporated by reference in its entirety), 5% Fetal Calf Serum (FCS, Sigma Cat-No. F4135 (FBS) which is hereby incorporated by reference in its entirety), and 100 Units/ml penicillin/100 μg/ml streptomycin(=Pen/Strep from Invitrogen Cat. No. 15140 which is hereby incorporated by reference in its entirety). For the assay the cells were seeded in 384 well plates, 5000 cells per well, in the same medium. The next day the test compounds were added in various concentrations ranging from 3 μM to 0.00015 μM (10 concentrations, 1:3 diluted). After 7 days the above viability assay was performed in accordance with the following steps: • Step 1: The cell-plate was equilibrated to room temperature for approximately 30 minutes and than the assay reagent was added. • Step 2: The contents were carefully mixed for 15 minutes to induce cell lysis. • Step 3: After 45 minutes the luminescent signal was measured in Victor 2, (scanning multiwell spectrophotometer, Wallac). Details: 1st Day: • Medium: Dulbecco's Modified Eagle Medium (DMEM) (1×) liquid (high glucose) (which includes L-Alanyl-L-Glutamine [a stabilized a form/source of L-Glutamine], 4500 mg/L glucose, and 110 mg/L sodium pyruvate) from Invitrogen Corporation (Invitrogen Catalog Number 31966-021 [now 10569-010]), 5% Fetal Calf Serum (FCS, Sigma Cat-No. F4135 (FBS)), and Pen/Strep (Invitrogen Cat. No. 15140). • HEK293 (ATCC-No. CRL 1573): 5000 cells in 60 μl per well of 384 well plate. (Greiner 781098, white plates) • Incubate 24 h at 37° C., 5% CO2 2nd Day: Induction (Substance Testing):
In general the dilution steeps are 1:3 a) Add 8 μl of 10 mM stock solution of compound to 72 μl DMSO b) dilute 9×1:3 (always 30 μl to 60 μl DMSO) in this DMSO dilution row (results in 10 wells with concentrations from 1000 μM to 0.06 μM) c) dilute each concentration 1: 4.8 (10 μl compound dilution to 38 μl medium) […]

Structure (SMILES)	inhibition at 1 µM (HER-2)	pIC50 (HEK293 cells)
O=C(Nc1ccc(C(F)(F)F)cc1)c1csc(COc2ccc(CCCCn3ccnn3)cc2)n1 [Example 41, 2-[4-(4-[1,2,3]Triazol-1-yl-butyl)-phenoxymethyl]-thiazole-4-carboxylic acid (4-trifluoromethyl-phenyl)-amide]	> 80%	6.30 to 8.30
O=C(Nc1ccc(OC(F)(F)F)cc1)c1csc(COc2ccc(CCCCn3ccnn3)cc2)n1 [Example 43, 2-[4-(4-[1,2,3]Triazol-1-yl-butyl)-phenoxymethyl]-thiazole-4-carboxylic acid (4-trifluoromethoxy-phenyl)-amide]	> 80%	5.52 to 6.30
O=C(Nc1nc(COc2ccc(CCCCn3ccnn3)cc2)cs1)c1ccc(Cl)cc1 [Example 52-5, 4-Chloro-N-{4-[4-(4-[1,2,3]triazol-1-yl-butyl)-phenoxymethyl]-thiazol-2-yl}-benzamide]	70 to 80%	6.30 to 8.30
CC(C)(C)c1ccc(C(=O)Nc2nc(COc3ccc(CCCCn4ccnn4)cc3)cs2)cc1 [Example 52-21, 4-tert-Butyl-N-{4-[4-(4-[1,2,3]triazol-1-yl-butyl)-phenoxymethyl]-thiazol-2-yl}-benzamide]	> 80%	6.30 to 8.30
